Source: patent publication US9315490B2, “2,5-substituted pyrimidines” (Grünenthal GmbH, priority 2014, dated 2016)

Target: T1, human PDE4B1 (Homo sapiens, UniProt Q07343)
T1 construct: host or cells: Sf9 cells
Assay: cAMP HTRF assay to determine the activity of hPDE4B1
Assay type: biochemical
Conditions: inhibition of PDE4B at a test concentration of 1 μM
In short: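 Human recombinant PDE4B1 from Sf9 cells (4.8 U) in Tris-HCl, MgCl2, DTT, Tween 20 buffer at pH 7.8 with 40 nM cAMP (final), 30 min at room temperature. Reaction stopped with 1 mM IBMX; remaining cAMP detected by HTRF (665/620 nm ratio). IC50 from eight-concentration curves.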

T1 sequence (Q07343 whole entry): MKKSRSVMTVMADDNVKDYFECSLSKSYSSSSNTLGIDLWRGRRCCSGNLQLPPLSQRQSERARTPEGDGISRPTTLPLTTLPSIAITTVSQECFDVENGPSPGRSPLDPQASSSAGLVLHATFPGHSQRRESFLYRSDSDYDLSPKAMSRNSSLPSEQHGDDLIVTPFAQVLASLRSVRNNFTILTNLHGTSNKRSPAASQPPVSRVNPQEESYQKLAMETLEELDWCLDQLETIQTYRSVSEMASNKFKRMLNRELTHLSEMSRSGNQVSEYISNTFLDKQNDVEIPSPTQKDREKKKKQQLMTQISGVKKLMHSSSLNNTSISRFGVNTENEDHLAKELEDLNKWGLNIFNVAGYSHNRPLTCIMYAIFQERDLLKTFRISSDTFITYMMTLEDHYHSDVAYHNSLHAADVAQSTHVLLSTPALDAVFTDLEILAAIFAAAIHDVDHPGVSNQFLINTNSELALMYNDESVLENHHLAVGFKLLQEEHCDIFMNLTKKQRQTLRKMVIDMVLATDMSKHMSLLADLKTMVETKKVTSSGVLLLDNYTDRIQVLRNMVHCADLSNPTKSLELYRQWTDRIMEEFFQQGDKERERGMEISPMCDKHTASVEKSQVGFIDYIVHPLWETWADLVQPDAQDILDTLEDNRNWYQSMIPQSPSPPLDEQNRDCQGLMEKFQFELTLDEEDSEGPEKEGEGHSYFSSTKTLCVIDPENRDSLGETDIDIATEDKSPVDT

Structure (SMILES)	inhibition at 1 µM [%]	other results
C[S+]([O-])c1cn(-c2ncc(-c3ccccc3F)cn2)c2cc(C(=O)N3CCCC3)ccc12 (centres unmarked) [Example 51, (1-(5-(2-Fluorophenyl)pyrimidin-2-yl)-3-(methylsulfinyl)-1H-indol-6-yl)(pyrrolidin-1-yl)methanone]	86	
C[S+]([O-])c1cn(-c2ncc(-c3ccccc3F)cn2)c2cc(C(=O)N3CCCCC3)ccc12 (centres unmarked) [Example 358, (1-(5-(2-Fluorophenyl)pyrimidin-2-yl)-3-(methylsulfinyl)-1H-indol-6-yl)(piperidin-1-yl)methanone]	98	
COc1cccc(-c2cnc(-n3cc([S+](C)[O-])c4ccc(C(=O)N5CCOCC5)cc43)nc2)c1 (single isomer, unassigned) [Example 158, (1-(5-(3-Methoxyphenyl)pyrimidin-2-yl)-3-(methylsulfinyl)-1H-indol-6-yl)(morpholino)methanone]		Inhibition in % (1 µM): 104%
CN(C)C(=O)c1ccc2c([S+](C)[O-])cn(-c3ncc(-c4ccccc4F)cn3)c2c1 (centres unmarked) [Example 52, 1-(5-(2-Fluorophenyl)pyrimidin-2-yl)-N,N-dimethyl-3-(methylsulfinyl)-1H-indole-6-carboxamide]	91	
CC(O)CN(C)C(=O)c1ccc2c([S+](C)[O-])cn(-c3ncc(-c4ccccc4F)cn3)c2c1 (centres unmarked) [Example 168, 1-(5-(2-Fluorophenyl)pyrimidin-2-yl)-N-(2-hydroxypropyl)-N-methyl-3-(methylsulfinyl)-1H-indole-6-carboxamide]	43	
CC(O)c1cn(-c2ncc(-c3ccccc3)cn2)c2cc(C(=O)N3CCOCC3)ccc12 (single isomer, unassigned) [Example 255, (3-(1-Hydroxyethyl)-1-(5-phenylpyrimidin-2-yl)-1H-indol-6-yl)(morpholino)methanone]		Inhibition in %: 95%
COC[C@@H]1CCCN1C(=O)c1ccc2c([S+](C)[O-])cn(-c3ncc(-c4ccccc4F)cn3)c2c1 (some centres unmarked) [Example 71]	63	
C[S+]([O-])c1cn(-c2ncc(-c3ccccn3)cn2)c2cc(C(=O)N3C[C@@H]4C[C@H]3CN4)ccc12 (stereo partly drawn) [Example 244, (1S,4S)-2,5-Diazabicyclo[2.2.1]heptan-2-yl(3-(methylsulfinyl)-1-(5-(pyridin-2-yl)pyrimidin-2-yl)-1H-indol-6-yl)methanone]	102	
C[S+]([O-])c1cn(-c2ncc(-c3ccccc3F)cn2)c2cc(C(=O)N3C[C@@H]4CCN[C@@H]4C3)ccc12 (stereo partly drawn) [Example 242, (1-(5-(2-Fluorophenyl)pyrimidin-2-yl)-3-(methylsulfinyl)-1H-indol-6-yl)((3aS,6aS)-hexahydropyrrolo[3,4-b]pyrrol-5(1H)-yl)methanone]	66	
C[S+]([O-])c1cn(-c2ncc(-c3ccccc3F)cn2)c2cc(C(=O)N3CC[C@H](O)C3)ccc12 (stereo partly drawn) [Example 67, (1-(5-(2-Fluorophenyl)pyrimidin-2-yl)-3-(methylsulfinyl)-1H-indol-6-yl)((S)-3-hydroxypyrrolidin-1-yl)methanone]	47	
C[S+]([O-])c1cn(-c2ncc(-c3ccccc3F)cn2)c2cc(C(=O)N3CC4CC3CN4)ccc12 (centres unmarked) [Example 175, 2,5-Diazabicyclo[2.2.1]heptan-2-yl(1-(5-(2-fluorophenyl)pyrimidin-2-yl)-3-(methylsulfinyl)-1H-indol-6-yl)methanone]	114	
CO[C@@H]1CCN(C(=O)c2ccc3c([S+](C)[O-])cn(-c4ncc(-c5ccccc5F)cn4)c3c2)C1 (stereo partly drawn) [Example 82, (1-(5-(2-Fluorophenyl)pyrimidin-2-yl)-3-(methylsulfinyl)-1H-indol-6-yl)((R)-3-methoxypyrrolidin-1-yl)methanone]	71	
C[C@@H]1CN(C(=O)c2ccc3c([S+](C)[O-])cn(-c4ncc(-c5ccccc5F)cn4)c3c2)CCO1 (stereo partly drawn) [Example 84, (1-(5-(2-Fluorophenyl)pyrimidin-2-yl)-3-(methylsulfinyl)-1H-indol-6-yl)((R)-2-methylmorpholino)methanone]	106	
CN(C(=O)c1ccc2c([S+](C)[O-])cn(-c3ncc(-c4ccccc4F)cn3)c2c1)C1(CO)CC1 (centres unmarked) [Example 170, 1-(5-(2-Fluorophenyl)pyrimidin-2-yl)-N-(1-(hydroxymethyl)cyclopropyl)-N-methyl-3-(methylsulfinyl)-1H-indole-6-carboxamide]	54	
C[S+]([O-])c1cn(-c2ncc(-c3ccccc3F)cn2)c2cc(C(=O)NC3COC3)ccc12 (centres unmarked) [Example 75, 1-(5-(2-Fluorophenyl)pyrimidin-2-yl)-3-(methylsulfinyl)-N-(oxetan-3-yl)-1H-indole-6-carboxamide]	47	
Cc1ccc(F)c(-c2cnc(-n3cc([S+](C)[O-])c4ccc(C(=O)N5CC[C@@H](N)C5)cc43)nc2)c1 (stereo partly drawn) [Example 227, ((R)-3-Aminopyrrolidin-1-yl)(1-(5-(2-fluoro-5-methylphenyl)pyrimidin-2-yl)-3-(methylsulfinyl)-1H-indol-6-yl)methanone]	108	
COC1CCN(C(=O)c2ccc3c([S+](C)[O-])cn(-c4ncc(-c5ccccc5F)cn4)c3c2)CC1 (centres unmarked) [Example 381, (1-(5-(2-Fluorophenyl)pyrimidin-2-yl)-3-(methylsulfinyl)-1H-indol-6-yl)(4-methoxypiperidin-1-yl)methanone]		Inhibition in % (1 µM): 12%
COC[C@H]1CCCN1C(=O)c1ccc2c([S+](C)[O-])cn(-c3ncc(-c4ccccc4F)cn3)c2c1 (stereo partly drawn) [Example 77, (1-(5-(2-Fluorophenyl)pyrimidin-2-yl)-3-(methylsulfinyl)-1H-indol-6-yl)((R)-2-(methoxymethyl)pyrrolidin-1-yl)methanone]	67	
CC(C)N(C(=O)c1ccc2c([S+](C)[O-])cn(-c3ncc(-c4ccccc4F)cn3)c2c1)C(C)C (centres unmarked) [Example 366, 1-(5-(2-Fluorophenyl)pyrimidin-2-yl)-N,N-diisopropyl-3-(methylsulfinyl)-1H-indole-6-carboxamide]	30	
C[S+]([O-])c1cn(-c2ncc(-c3ccc(C(N)=O)cc3F)cn2)c2cc(C(=O)N3CCNCC3)ccc12 (centres unmarked) [Example 15, 3-Fluoro-4-(2-(3-(methylsulfinyl)-6-(piperazine-1-carbonyl)-1H-indol-1-yl)pyrimidin-5-yl)benzamide]	44	
CS(=O)(=O)c1cn(-c2ncc(-c3ccccc3F)cn2)c2cc(C(=O)N3C[C@H]4C[C@@H]3CO4)ccc12 [Example 238, (1R,4R)-2-Oxa-5-azabicyclo[2.2.1]heptan-5-yl(1-(5-(2-fluorophenyl)pyrimidin-2-yl)-3-(methylsulfonyl)-1H-indol-6-yl)methanone]	32	
CCC1CCCCN1C(=O)c1ccc2c([S+](C)[O-])cn(-c3ncc(-c4ccccc4F)cn3)c2c1 (centres unmarked) [Example 371, (2-Ehylpiperidin-1-yl)(1-(5-(2-fluorophenyl)pyrimidin-2-yl)-3-(methylsulfinyl)-1H-indol-6-yl)methanone]	32	
C[S+]([O-])c1cn(-c2ncc(-c3ccccc3F)cn2)c2cc(C(=O)N3CCCCC3CO)ccc12 (centres unmarked) [Example 379, (1-(5-(2-Fluorophenyl)pyrimidin-2-yl)-3-(methylsulfinyl)-1H-indol-6-yl)(2-(hydroxymethyl)piperidin-1-yl)methanone]	50	

Continued, in another order:

inhibition at 1 µM [%]	Structure (SMILES)	other results
100	C[S+]([O-])c1cn(-c2ncc(-c3cc(O)ccc3F)cn2)c2cc(C(=O)N3CCOCC3)ccc12 (centres unmarked) [Example 41, (1-(5-(2-Fluoro-5-hydroxyphenyl)pyrimidin-2-yl)-3-(methylsulfinyl)-1H-indol-6-yl)(morpholino)methanone]	
75	C[S+]([O-])c1cn(-c2ncc(-c3ccc(C#N)cc3)cn2)c2cc(C(=O)N3CCOCC3)ccc12 (centres unmarked) [Example 31, 4-(2-(3-(Methylsulfinyl)-6-(morpholine-4-carbonyl)-1H-indol-1-yl)pyrimidin-5-yl)benzonitrile]	
98	CC(O)c1cn(-c2ncc(-c3ccccc3F)cn2)c2cc(C(=O)N3CCOCC3)ccc12 (centres unmarked) [Example 28, (1-(5-(2-fluorophenyl)pyrimidin-2-yl)-3-(1-hydroxyethyl)-1H-indol-6-yl)(morpholino)methanone]	
83	C[S+]([O-])c1cn(-c2ncc(-c3cc(C(N)=O)ccc3F)cn2)c2cc(C(=O)N3CCOCC3)ccc12 (centres unmarked) [Example 43, 4-Fluoro-3-(2-(3-(methylsulfinyl)-6-(morpholine-4-carbonyl)-1H-indol-1-yl)pyrimidin-5-yl)benzamide]	
110	Cc1ccnc(-c2cnc(-n3cc([S+](C)[O-])c4ccc(C(=O)N5CCOCC5)cc43)nc2)c1 (racemic) [Example 142, (1-(5-(4-methylpyridin-2-yl)pyrimidin-2-yl)-3-(methylsulfinyl)-1H-indol-6-yl)(morpholino)methanone]	
104	C[S+]([O-])c1cn(-c2ncc(-c3ccccc3)cn2)c2cc(C(=O)N3CCOCC3)ccc12 (single isomer, unassigned) [Example 163, (3-(Methylsulfinyl)-1-(5-phenylpyrimidin-2-yl)-1H-indol-6-yl)(morpholino)methanone]	
95	COc1ccc(F)c(-c2cnc(-n3cc(S(C)(=O)=O)c4ccc(C(=O)N5CCOCC5)cc43)nc2)c1 [Example 162, (1-(5-(2-Fluoro-5-methoxyphenyl)pyrimidin-2-yl)-3-(methylsulfonyl)-1H-indol-6-yl)(morpholino)methanone]	
98	Cc1cccc(-c2cnc(-n3cc([S+](C)[O-])c4ccc(C(=O)N5CCOCC5)cc43)nc2)c1 (single isomer, unassigned) [Example 154, (3-(Methylsulfinyl)-1-(5-(m-tolyl)pyrimidin-2-yl)-1H-indol-6-yl)(morpholino)methanone]	
105	COc1ccc(-c2cnc(-n3cc([S+](C)[O-])c4ccc(C(=O)N5CCOCC5)cc43)nc2)c(F)c1 (centres unmarked) [Example 39, (1-(5-(2-Fluoro-4-methoxyphenyl)pyrimidin-2-yl)-3-(methylsulfinyl)-1H-indol-6-yl)(morpholino)methanone]	
